Columns and labels:
h-CD22 (Siglec-2) [1] = molecular target: T1, h-CD22 (Siglec-2) (Homo sapiens, UniProt P20273); experiment: intrinsic tryptophan fluorescence titration; STD NMR and tr-NOESY; assay type: binding
T1 sequence (P20273 20-687 limits assumed): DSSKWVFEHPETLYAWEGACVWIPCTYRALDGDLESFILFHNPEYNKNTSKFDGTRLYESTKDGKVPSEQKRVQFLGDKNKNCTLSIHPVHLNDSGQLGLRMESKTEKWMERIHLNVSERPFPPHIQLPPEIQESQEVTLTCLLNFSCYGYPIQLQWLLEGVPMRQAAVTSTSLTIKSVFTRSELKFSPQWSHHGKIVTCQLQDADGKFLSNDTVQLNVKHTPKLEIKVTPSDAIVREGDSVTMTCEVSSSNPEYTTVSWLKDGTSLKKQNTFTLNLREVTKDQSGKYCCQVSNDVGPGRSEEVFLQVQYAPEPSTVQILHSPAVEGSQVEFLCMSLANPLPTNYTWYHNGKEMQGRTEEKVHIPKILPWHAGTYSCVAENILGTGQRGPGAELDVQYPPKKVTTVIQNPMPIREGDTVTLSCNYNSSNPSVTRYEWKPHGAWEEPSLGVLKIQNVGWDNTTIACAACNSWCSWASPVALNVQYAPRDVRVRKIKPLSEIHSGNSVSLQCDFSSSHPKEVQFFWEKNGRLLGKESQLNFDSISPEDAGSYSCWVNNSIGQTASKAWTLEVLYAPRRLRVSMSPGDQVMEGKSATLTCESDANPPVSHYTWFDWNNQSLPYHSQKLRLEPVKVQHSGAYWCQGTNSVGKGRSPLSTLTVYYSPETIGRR
Source text: intrinsic tryptophan fluorescence titration; STD NMR and tr-NOESY on h-CD22 (Siglec-2) | thus proving the complex formation.

h-CD22 (Siglec-2) [2] = molecular target: T1, h-CD22 (Siglec-2); experiment: SPR (CD22 immobilized on protein A chip); STD NMR; assay type: binding

| SMILES | Kd (h-CD22 (Siglec-2) [1]) [µM] | Kd (h-CD22 (Siglec-2) [2]) [µM] |
| --- | --- | --- |
| CC(=O)N[C@H]1[C@H]([C@H](O)[C@H](O)CO)OC(OC[C@H]2O[C@@H]3OC4=C(S[C@@H]3[C@@H](O)[C@H]2O)C(=O)N[C@H](C(=O)O)C4)(C(=O)O)C[C@@H]1O (some centres unmarked) [compound 1, Sialyl-TnThr analogue] | 2 ± 0.1 |  |
| CC(=O)N[C@H]1[C@H]([C@H](O)[C@H](O)CNC(=O)c2ccc(-c3ccccc3)cc2)OC(OC[C@H]2O[C@@H]3OC4=C(S[C@@H]3[C@@H](O)[C@H]2O)C(=O)N[C@H](C(=O)O)C4)(C(=O)O)C[C@@H]1O (some centres unmarked) [compound 2, sialo-derivative 2] |  | 13.5 ± 2.6 |

Source: article PMC9315041, “Conformationally Constrained Sialyl Analogues as New Potential Binders of h‐CD22” (Chembiochem, 2022)
